# Assay results reported in ChEMBL document CHEMBL4138276, “Hamigerans R and S: Nitrogenous Diterpenoids from the New Zealand Marine Sponge Hamigera tarangaensis” (J Nat Prod, 2018).
# Calls of active or inactive are those of the source. No cut-off for these calls is given here.
# System: HL-60
# Assay: Cytotoxicity against human HL60 cells assessed as inhibition of cell proliferation at <10 uM after 48 hrs by MTT assay
# Type: functional, cell-based
row,SMILES,inhibition
1,COC(=O)[C@]1(O)C(=O)c2c(O)c(Br)c(C)c(Br)c2[C@H]2[C@@H](C(C)C)CC[C@]21C,inactive
2,Cc1cc([C@H]2[C@@H](C(C)C)CC[C@@]2(C)CC(=O)O)c(C#N)c(O)c1Br,inactive
3,Cc1cc(O)c2c(c1)[C@H]1[C@@H](C(C)C)CC[C@@]1(C)[C@@H](O)[C@H](O)C2=O,inactive
4,Cc1cc2c3c(c1Br)O[C@]14N[C@]3(Oc3c(Br)c(C)cc(c31)[C@H]1[C@@H](C(C)C)CC[C@@]1(C)CC4=O)C(=O)C[C@]1(C)CC[C@H](C(C)C)[C@H]21,inactive
5,COC(=O)[C@@]1(O)C(=O)[C@]2(C)CC[C@H](C(C)C)[C@@H]2c2cc(C)cc(O)c21,inactive
6,Cc1cc(O)c2c(c1)[C@H]1[C@@H](C(C)C)CC[C@@]1(C)C(=O)C2=O,inactive
7,COC(=O)c1c([C@H]2[C@@H](C(C)C)CC[C@@]2(C)CC(=O)O)cc(C)c(Br)c1O,inactive
